Key:
[1] = tested on: human non-small cell lung cancer cells NCI-H358; assay: Xenograft tumor model NCI-H358; assay type: in vivo, female athymic nude mice; conditions: oral, p <0.001
Protocol: The purpose of this assay is to measure reduction in tumor volume in response to test compound administration. Expand human colorectal cancer cells HCT116 (ATCC, #CCL-247) or human non-small cell lung cancer cells NCI-H358 (ATCC, # CRL-5807) in culture, harvest and inject 5×10e^6 cells in 200 μL of 1:1 HBSS+matrigel solution subcutaneously on to the rear right flank of female athymic nude mice (22-25 gm, Harlan Laboratories). Expand human pancreatic cancer cells SW1990 (ATCC, # CRL-2172) in culture, harvest and inject 2×10e^6 cells in 200 μL of 1:1 HBSS+matrigel solution subcutaneously on to the rear right flank of female athymic nude mice (22-25 gm, Harlan Laboratories). Expand human pancreatic cancer cells MIA PACA-2 (ATCC, # CRL-1420) or human non-small cell lung cancer cells A549 (ATCC, # CCl-185) in culture, harvest and inject 5×10e^6 cells in 200 μL of 1:1 HBSS+matrigel solution subcutaneously on to the rear right flank of female CB-17 SCID mice (22-25 gm, Charles River Laboratories International Inc.). Expand human melanoma cells A-375 (ATCC, # CRL-1619) in culture, harvest and inject 5×10e^6 cells in 200 μL of 1:1 HBSS+matrigel solution subcutaneously on to the rear right flank of female NIH nude rats (140-160 gm, Taconic Farms). […] Tumor response is determined by tumor volume measurement performed twice a week during the course of treatment.

[2] = tested on: ERK substrate (RSK) phosphorylation in HCT116 colorectal cancer cell line; assay: ERK1/2 cell mechanistic assay (pRSK1 Alphascreen assay); assay type: cell-based; conditions: Homo sapiens, HCT-116, 2 h; HCT116 cells, two hours, Rel IC50; read-out: pRSK1 inhibition IC50
Protocol: The purpose of this assay is to measure the ability of compounds to inhibit ERK signaling in cancer cells in vitro. Carry out the pRSK1 Alphascreen assay using the HCT116 colorectal cancer cell line (ATCC, # CCL-247). Routinely culture HCT116 cells in Dulbecco's Modified Eagle's Medium (DMEM) (Hyclone, #SH30022) growth medium containing 5% Fetal Bovine Serum (FBS) (Gibco, #16000-044) in T-150 flasks and incubate in a 5% CO2 incubator at 37° C. Harvest cells when they become confluent and freeze in freezing medium at 1×10e^7 cells/mL as “assay ready frozen cells” and store in liquid nitrogen. To run the assay, plate 40,000 HCT116 cells/well in a 96-well tissue culture plate and incubate at 37° C. in a 5% CO2 incubator overnight. Test compounds at 10 concentrations starting at a 20 μM top concentration and utilize a 1:3 dilution scheme (20 μM to 0.001 μM) with a final DMSO concentration of 0.5% (v/v). Add compounds in 20 μL serum free growth medium and incubate at 37° C. for two hours. Remove growth medium and add 50 μL of 1× lysis buffer [Cell Signaling Technology, #9803] containing 1×holt protease and phosphatase inhibitor cocktail [Thermo, #78441] to each well and incubate at room temperature for 10 minutes on a shaker. […] Measure the fluorescence intensity in each well by reading the plates in ENVISION® (PerkinElmer) plate reader. […]

COCCN1C(=O)c2cc(-c3ccnc(Nc4ccnn4C)c3)sc2C1(C)C [Example 1, 5-(2-Methoxyethyl)-6,6-dimethyl-2-{2-[(1-methyl-1H-pyrazol-5-yl)amino]pyridin-4-yl}-5,6-dihydro-4H-thieno[2,3-c]pyrrol-4-one]
Regression (%) ([1]; NCI-H358, 25 mg/kg BID): −13% | Regression (%) ([1]; NCI-H358, 50 mg/kg BID): −35% | IC50 [2]: 261 nM
